Experiment: Parallel artificial membrane permeability assay
Assay type: in vitro ADME
Conditions: result in words

| Structure (SMILES) | permeability by PAMPA |
| --- | --- |
| O=C(NC1CCCC1)[C@@H]1CCCCOc2cccc(c2)C[C@H](N2CCCC2=O)C(=O)N[C@@H](CCN2CCOCC2)C(=O)N1 [TDI8304] | modest |
| Cc1ccc(CNC(=O)[C@@H]2Cc3cccc(c3)Oc3cccc(c3)C[C@H](N)C(=O)N[C@@H](CCc3ccccc3)C(=O)N2)cc1 [CP1, (5S,8S,11S)-11-amino-N-(4-methylbenzyl)-7,10-dioxo-8-phenethyl-2-oxa-6,9-diaza-1,3(1,3)-dibenzenacyclododecaphane-5-carboxamide] | undetectable |
